Results on five compounds are retold here after publication PMC12559310, “Tumor-targeted top1 inhibitor delivery with optimized parp inhibition in advanced solid tumors: a phase i trial of gapped scheduling” (Nature Communications, 2025).

Series [1] concerns patients with solid tumors. The settings on record: cited from earlier work.
A further series relates to SCLC cell lines. Set-up: method as in protocol [5]. The settings on record: pre-clinical models of SCLC; ref protocol [5]; cited from earlier work.
The test system of series [2] is patients with advanced solid malignancies. As to conditions: cited from earlier work.
For series [3], the system named is γ-H2AX. The series can be described thus: γ-H2AX intensity in plucked hair bulbs. The series is classed as in vivo, human. The settings on record: for gamma-H2AX intensities / excess gamma-H2AX intensities (minus D1) / gamma-H2AX intensities minus D1, averages / gamma-H2AX intensities, averages: plucked hairs; for gamma-H2AX intensities / excess gamma-H2AX intensities (minus D1): D3 (48 h after CRLX101, before olaparib); for gamma-H2AX intensities minus D1, averages / gamma-H2AX intensities, averages: D3 (before olaparib). As for the experimental part: (§1) PBMCs were isolated by Ficoll gradient, washed 3 times with phosphate-buffered saline (PBS), fixed in 2% paraformaldehyde (PFA) for 20 min, washed 3 times with PBS, and spotted on slides by cytospin (800 rpm/4 min). PBMCs on slides were permeabilized with pre-chilled ethanol 70% and slides were stored at 4 °C overnight. […] Finally, slides were incubated at 37 °C for 5 min with a solution containing RNAse A (0.5 mg/mL) and propidium iodide (PI) (5 µg/mL). Slides were then mounted with mounting medium containing PI (Vectashield, Vector Laboratories, Inc., Burlingame, CA, USA) and sealed with nail polish.
Hair bulbs were collected in 1.5 microtubes filled with cold PBS and placed on ice directly after plucking. Plucked hairs were then fixed for 20 min at room temperature with 2% PFA in 1.5 microtubes. Following 3 washes with 1 ml PBS, plucked hairs were imaged, and anagen hair bulbs hairs were selected for γ-H2AX detection. Samples were permeabilized with pre-chilled ethanol 70%, washed, and stored at 4 °C until use. γ-H2AX detection was performed as described for PBMCs, but times for blocking and staining procedures were increased by 50%. Washes were performed by 3 washes with PBS. After incubation with the RNAse and PI solution at 37 °C for 30 min, hair shafts were detached from the bulbs by using a razor blade, and hair bulbs were mounted between a slide and a coverslip with mounting medium containing PI and sealed with nail polish.
(§2) Samples were imaged by laser scanning confocal microscopy (Zeiss LSM 710 NLO). Optical sections through PBMCs and hair bulbs were combined in a maximum projection using the Zeiss Zen software. The foci were counted in PBMCs using the FociCounter software[55] by analyzing at least 200 cells, while γ-H2AX intensities were measured in the extremity of the hair bulbs with the Image J software. The above antibodies have been used in previous studies[56],[57].

Series [4] deals with patients with advanced solid tumors. The series can be described thus: Phase I dose escalation (3 + 3 design): DLTs and MTD/RP2D of CRLX101 plus olaparib. The class given is in vivo, human. The settings on record: CRLX101 12 mg/m2 combined with Olaparib 250 tab bid; % of single-agent MTD; Current study. The source says:
Olaparib tablets were given at escalating doses across cohorts (as shown in Fig. 1), administered twice daily on days 3–13 and 17–26 of the treatment cycle.
A standard 3 + 3 design was used for dose escalation. […] DLTs were based on toxicities observed during the first cycle. […] Study treatment was discontinued if there was a > 3-week delay in reinstitution of treatment due to drug-related toxicity during a cycle. Dose reductions were allowed for toxicities. A maximum of two dose reductions were allowed. Dose re-escalation was not allowed.

The test system of series [5] is γ-H2AX. Put plainly: γ-H2AX foci per cell in PBMCs. The class given is in vivo, human. The settings on record: for γ-H2AX foci per cell in PBMCs Minus D1, averages (Fig 3G) / γ-H2AX foci per cell in PBMCs, averages (Fig 3G): D3 (before olaparib); for γ-H2AX, AVERAGES foci per cell / γ-H2AX, AVERAGES excess foci per cell: PBMCs; for γ-H2AX, AVERAGES foci per cell: D3 (48 h after CRLX101, before olaparib). As for the experimental part: as §1, §2

Setting [6] is: phase 1/2a patients receiving the MTD (n=44), no grade 4.

“And” between values parts separate entries of the source, which are not always exact repeats. Identical values can stand only once. Like-named read-outs stand apart in the source and are kept apart here.

Regarding `CC[C@@]1(O)C(=O)OCc2c1cc1n(c2=O)Cc2cc3c(CN(C)C)c(O)ccc3nc2-1` [topotecan], the “Topo1i % of MTD” value in series [1] (Topotecan 0.6 mg/m2/d1-5 with Veliparib 10 bid d1-5, % of single-agent MTD, ref Kummar, Can Res, 2011) is on record as 40%; in series [1] (Topotecan 1 mg/m2/d1-3 with Olaparib 100 mg bid d1-21, ref Samol, Inv New Drugs, 2012) it was 40%; in series [1] (Topotecan 3 mg/m2 d2,9,16 with Veliparib 300 mg bid, ref Hendrickson, Clin Can Res, 2017) it was 75%.

For the compound `CNCc1ccc(-c2[nH]c3cc(F)cc4c3c2CCNC4=O)cc1` [rucaparib], the single agent activity result in the series with SCLC cell lines is given as “striking single agent activity in a majority of SCLC cell lines tested”.

`C[C@]1(c2nc3c(C(N)=O)cccc3[nH]2)CCCN1` [veliparib]: the “PARPi % of MTD” value in series [1] (Veliparib 50 mg BID with Liposomal Irinotecan 70 mg/m2 q2w, ref LaRose, Oncologist, 2023) is on record as 13%; in series [1] (Veliparib 300 mg bid with Topotecan 3 mg/m2 d2,9,16, ref Hendrickson, Clin Can Res, 2017), 75%; in series [1] (Veliparib 10 bid d1-5 with Topotecan 0.6 mg/m2/d1-5, % of single-agent MTD, ref Kummar, Can Res, 2011), 3%; in series [1] (Veliparib 10 bid d1-5 with Topotecan 0.6 mg/m2/d1-5, % of single-agent MTD, ref Kummar, Can Res, 2011, listed as Veliparib), “≈ 3%”; in series [1] (Veliparib 40 bid d1-14 with Irinotecan 100 mg/m2, ref LoRusso, Clin Can Res, 2016) it was 10%.

On to Poly-CD-PEG-Camptothecin [CRLX101], for which the entries for the “Best overall response stable disease” value in series [2] (16 of a subset of NSCLC patients) and in series [2] (28 patients treated at the MTD) were 73% and 64%, respectively. Besides, in series [2] (CRLX101 monotherapy, bi-weekly, IV over 60 min, ref protocol [15]), the MTD is given as 15 mg/m2. Further, the “Median progression-free survival (PFS)” value in series [2] (patients treated at the MTD) is recorded as 3.7 months; in series [2] (subset of NSCLC patients), 4.4 months. Further, the “Grade 3 fatigue” value in series [2] (setting [6]) was 9%. Moreover, in series [2] (setting [6]), the “Grade 3 neutropenia” value is recorded as 9%. Also, the “γH2AX signal after CRLX101 alone” value in the series with γ-H2AX [3] (Day 3 (48 h after CRLX101, pre-olaparib) vs pre-treatment, hair follicles and PBMC) is on record as “increase in γH2AX signal”. Moreover, the gamma-H2AX intensities in the series on γ-H2AX [3] (DL1, average per patient) is 4.816; with γ-H2AX [3] (DL2, average per patient) it was 5.391 and 2.136 and 5.3349 and 5.978 and 6.804; in the series with γ-H2AX [3] (DL3, average per patient) it was 4.982 and 13.4338 and 12.7188; in the series with γ-H2AX [3] (DL4, average per patient) it was 3.4222 and 3.662 and 5.428; in the series on γ-H2AX [3] (DL4R, average per patient) it was 4.487 and 2.444 and 10.191 and 5.772. Also, the “excess gamma-H2AX intensities (minus D1)” value was 2.945 in the series on γ-H2AX [3] (DL1, per patient); 2.273 and 0.6534 and 4.441 and 4.582 and 4.99 in the series on γ-H2AX [3] (DL2, per patient); 4.135 and 12.5502 and 12.1828 in the series on γ-H2AX [3] (DL3, per patient); 2.309 and 3.241 and 5.235 with γ-H2AX [3] (DL4, per patient); 3.986 and 2 and 9.666 and 4.568 in the series on γ-H2AX [3] (DL4R, per patient). For the same compound, the “gamma-H2AX intensities minus D1, averages” value with γ-H2AX [3] (DL1) turned out to be 2.945; in the series on γ-H2AX [3] (DL2) it was 3.388; with γ-H2AX [3] (DL3), 9.623; with γ-H2AX [3] (DL4) it was 0.8727; in the series with γ-H2AX [3] (DL4R), 3.856. For the same compound, the “gamma-H2AX intensities, averages” value is listed as 4.816 with γ-H2AX [3] (DL1, average across patients); 5.129 in the series with γ-H2AX [3] (DL2, average across patients); 10.3781 in the series on γ-H2AX [3] (DL3, average across patients); 4.171 in the series with γ-H2AX [3] (DL4, average across patients); 5.7233 in the series with γ-H2AX [3] (DL4R, average across patients). In series [4], the “Topo1i % of MTD” value was 80%. For the same compound, the “γ-H2AX foci per cell in PBMCs Minus D1, averages (Fig 3G)” value in the series with γ-H2AX [5] (DL1) is on record as 0.009559; with γ-H2AX [5] (DL2), -0.04097; with γ-H2AX [5] (DL3), 0.07028; with γ-H2AX [5] (DL4) it was 0.05059; in the series with γ-H2AX [5] (DL4R), 0.1138. For the same compound, the “γ-H2AX foci per cell in PBMCs, averages (Fig 3G)” value in the series on γ-H2AX [5] (DL1, average across patients) was determined as 0.2861; in the series on γ-H2AX [5] (DL2, average across patients), 0.07487; in the series with γ-H2AX [5] (DL3, average across patients), 0.3286; in the series on γ-H2AX [5] (DL4, average across patients) it was 0.1354; in the series with γ-H2AX [5] (DL4R, average across patients), 0.1974. Besides, the “γ-H2AX, AVERAGES foci per cell” value in the series with γ-H2AX [5] (DL1, per patient) is 0.4504 foci per cell and 0.1217 foci per cell; in the series with γ-H2AX [5] (DL2, per patient) it was 0.06098 foci per cell and 0.03645 foci per cell and 0.07605 foci per cell and 0.04348 foci per cell and 0.1574 foci per cell; in the series on γ-H2AX [5] (DL3, per patient), 0.574 foci per cell and 0.2632 foci per cell and 0.1488 foci per cell; in the series on γ-H2AX [5] (DL4, per patient), 0.05652 foci per cell and 0.07904 foci per cell and 0.3651 foci per cell and 0.04096 foci per cell; with γ-H2AX [5] (DL4R, per patient), 0.05895 foci per cell and 0.2317 foci per cell and 0.2655 foci per cell and 0.1875 foci per cell and 0.2432 foci per cell. Also, the “γ-H2AX, AVERAGES excess foci per cell” value in the series on γ-H2AX [5] (D3 (before olaparib) minus D1, DL1, per patient) was 0.02853 foci per cell and -0.009408 foci per cell; in the series with γ-H2AX [5] (D3 (before olaparib) minus D1, DL2, per patient), 0.01208 foci per cell and -0.0007052 foci per cell and -0.1169 foci per cell and -0.007436 foci per cell and -0.09186 foci per cell; in the series on γ-H2AX [5] (D3 (before olaparib) minus D1, DL3, per patient), 0.159 foci per cell and 0.113 foci per cell and -0.06118 foci per cell; with γ-H2AX [5] (D3 (before olaparib) minus D1, DL4, per patient), -0.04714 foci per cell and 0.07394 foci per cell and 0.1683 foci per cell and 0.007302 foci per cell; in the series on γ-H2AX [5] (D3 (before olaparib) minus D1, DL4R, per patient), 0.006793 foci per cell and 0.06366 foci per cell and 0.2087 foci per cell and 0.1048 foci per cell and 0.1705 foci per cell.

With `CCc1c2c(nc3ccc(OC(=O)N4CCC(N5CCCCC5)CC4)cc13)-c1cc3c(c(=O)n1C2)COC(=O)[C@]3(O)CC` [Irinotecan], the “Topo1i % of MTD” value is given as 80% in series [1] (Irinotecan 100 mg/m2 with Veliparib 40 bid d1-14, ref LoRusso, Clin Can Res, 2016); 69% in series [1] (Irinotecan 125 mg/m2 q2w with Olaparib 50 mg bid d1-5, ref Chen, Inv New Drugs, 2016); 57% in series [1] (Irinotecan 200 mg/m2 q3w with Olaparib 50 mg qd d1-21, ref Chen, Inv New Drugs, 2016).
